# According to patent publication US20260207563A1, “UREA COMPOUNDS AS ACTIVATORS OF POTASSIUM CHANNELS KV7.2/7.3 USEFUL IN THE TREATMENT OF CNS AND PNS DISORDERS” (ANGELINI PHARMA S.P.A., priority 2022, published 2026):
# How the values were obtained:
# Assay type in all cases: cell-based
# [1] = molecular target: T1, heteromeric KV7.2/KV7.3 channels (KCNQ2, KCNQ3) (Homo sapiens, UniProt O43525+O43526); assay: Automated patch-clamp (Sophion Qube 384) potency assay against KV7.2/KV7.3 channels; conditions: CHO-K1/Kv7.2/Kv7.3 cells; for EC50: EC50 from concentration-response of shift in Vhalf, 10 concentrations up to 30 μM, read-out: Kv7.2/7.3 EC50; for Kv7.2/7.3 ΔV1/2: maximal shift in the Vhalf from the top of the curve
# T1 construct: expressed in transfected cells; host or cells: CHO-K1
# How it was run: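 Activator potency: EC50 from 4-parameter logistic fit of mean Vhalf shift across ten 1-in-3 dilutions starting at 30 μM (n=4), with DMSO (typically 0.3%) control. Currents recorded by leak-subtracted whole-cell clamp of stable CHO-K1 KV7.2/KV7.3 cells, held at −80 mV, stepped −100 to +20 mV then 0 mV tails.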
# [2] = molecular target: T2, homomeric KV7.4 channel (KCNQ4) (Homo sapiens, UniProt P56696); assay: Automated patch-clamp (Qube) counter-screening assay against KV7.4 channel; conditions: CHO-K1 cells expressing KV7.4; class by maximal shift in the Vhalf at 30 μM
# T2 construct: host or cells: CHO-K1
# Source text: Assessment of In Vitro Potency Against KV7.4 Channels
# A counter-screening assay was also developed on the Qube against the homomeric KV7.4 channel (KCNQ4, Uniprot ID P56696). The cell line used was a stably transfected CHO-K1 with constitutive KV7.4 expression supplied by Charles River Laboratories.
# CHO-K1 cells stably expressing KV7.4 channels were maintained in the following culture media: • Hams F-12 with GlutaMAX™ (Life Technologies 31765027), • 10% Fetal clone 2 serum (Perbio Science SH30066.03), and • 250 μg/ml Geneticin™ selective antibiotic (G418, Invitrogen 1013-027).
# (§1) Cell maintenance, preparation, recording conditions and voltage protocols were all identical to those above.
# (§2) Analysis of Data for Assessment of Potency
# (§3) 10 concentrations of test compounds were applied to individual wells in quadruplicate to assess potency as a 1 in 3 dilution series from the maximal concentration of 30 μM. The average shift in the voltage for half activation (Vhalf) for each concentration was used to generate concentration-response curves fitted with a 4-parameter logistic model to estimate the EC50 from the point of inflection of the curve and the maximal shift in the Vhalf from the top of the curve.
# (§4) The lower the EC50 value, the higher the potency of the analyzed compound. The selectivity criteria is assigned on the basis of the maximal shift in the Vhalf at 30 μM. […] In Table 3, ND means that selectivity was not determined.
# [3] = molecular target: T3, heteromeric KV7.3/KV7.5 channel (KCNQ3, KCNQ5) (Homo sapiens, UniProt O43525+Q9NR82); assay: Automated patch-clamp counter-screening against KV7.3/KV7.5 channel; conditions: HEK293 cells expressing Kv7.3/KV7.5; class by maximal shift in the Vhalf at 30 μM
# T3 construct: host or cells: HEK293
# Protocol: Assessment of in vitro potency against KV7.3/KV7.5 channels
# Counter-screening was also carried out against the heteromeric KV7.3/KV7.5 channel (KCNQ3, Uniprot ID 043525; KCNQ5, Uniprot ID Q9NR82). The cell line used was a stably transfected HEK293 cell line with constitutive Kv7.3 expression and tetracycline inducible KV7.5 expression supplied by Charles River Laboratories.
# Cells were maintained in the following culture media: • DMEM/F-12 with GlutaMAX™ (Life Technologies 31331-028), • 10% Tet Systems FCS (Clonetech 631106), • 500 μg/ml Geneticin™ selective antibiotic (G418, Invitrogen 1013-027), • 5 μg/ml Blasticidin S HCl (InvivoGen ant-bl-5), and • 100 μg/ml Zeocin (InvivoGen: ant-zn-5).
# as §1, §2, §3, §4
SMILES,EC50 [1],Kv7.2/7.3 ΔV1/2 [1],Kv7.4 selectivity criteria [2],Kv7.3/7.5 selectivity criteria [3]
"O=C(NCCC1(C(F)(F)F)CC1)NCc1cc(OCc2ccccc2)ncn1 [Compound 11, 1-((6-(Benzyloxy)pyrimidin-4-yl)methyl)-3-(2-(1-(trifluoromethyl)cyclopropyl)ethyl)urea]",1.83 µM,27.09 mV,A (Selective compounds showed Kv7.4 and/or Kv7.3/7.5 ΔV1/2 equal to or lower than 15 mV (letter A in table 3)),B (Non-selective compounds showed Kv7.4 and/or Kv7.3/7.5 ΔV1/2 higher than 15 mV (letter B in table 3))
"O=C(NCCC1(C(F)(F)F)CC1)NCc1ccnc(OCC2CCOCC2)c1 [Compound 12, 1-((2-((Tetrahydro-2H-pyran-4-yl)methoxy)pyridin-4-yl)methyl)-3-(2-(1-(trifluoromethyl)cyclopropyl)ethyl)urea]",7.65 µM,13.2 mV,A (Selective compounds showed Kv7.4 and/or Kv7.3/7.5 ΔV1/2 equal to or lower than 15 mV (letter A in table 3)),A (Selective compounds showed Kv7.4 and/or Kv7.3/7.5 ΔV1/2 equal to or lower than 15 mV (letter A in table 3))
"O=C(NCCC1(C(F)(F)F)CC1)NCc1ccnc(OCC2CC(F)(F)C2)c1 [Compound 15, 1-((2-((3,3-Difluorocyclobutyl)methoxy)pyridin-4-yl)methyl)-3-(2-(1-(trifluoromethyl)cyclopropyl)ethyl)urea]",2.02 µM,25.72 mV,A (Selective compounds showed Kv7.4 and/or Kv7.3/7.5 ΔV1/2 equal to or lower than 15 mV (letter A in table 3)),A (Selective compounds showed Kv7.4 and/or Kv7.3/7.5 ΔV1/2 equal to or lower than 15 mV (letter A in table 3))
"O=C(NCCC1(C(F)(F)F)CC1)NCc1ccnc(NCC(F)(F)F)c1 [Compound 16, 1-((2-((2,2,2-Trifluoroethyl)amino)pyridin-4-yl)methyl)-3-(2-(1-(trifluoromethyl)cyclopropyl)ethyl)urea]",6.23 µM,20.12 mV,A (Selective compounds showed Kv7.4 and/or Kv7.3/7.5 ΔV1/2 equal to or lower than 15 mV (letter A in table 3)),A (Selective compounds showed Kv7.4 and/or Kv7.3/7.5 ΔV1/2 equal to or lower than 15 mV (letter A in table 3))

# Continued, in another order:
EC50 [1],Kv7.2/7.3 ΔV1/2 [1],SMILES,Kv7.4 selectivity criteria [2],Kv7.3/7.5 selectivity criteria [3]
4.45 µM,22.29 mV,"O=C(NCCC1(C(F)(F)F)CC1)NCc1ccnc(OCc2ncco2)c1 [Compound 13, 1-((2-(Oxazol-2-ylmethoxy)pyridin-4-yl)methyl)-3-(2-(1-(trifluoromethyl)cyclopropyl)ethyl)urea]",A (Selective compounds showed Kv7.4 and/or Kv7.3/7.5 ΔV1/2 equal to or lower than 15 mV (letter A in table 3)),A (Selective compounds showed Kv7.4 and/or Kv7.3/7.5 ΔV1/2 equal to or lower than 15 mV (letter A in table 3))
0.392 µM,26.52 mV,"O=C(NCCC1(C(F)(F)F)CC1)NCc1ccnc(OCc2ccc(F)cc2)c1 [Compound 14, 1-((2-((4-Fluorobenzyl)oxy)pyridin-4-yl)methyl)-3-(2-(1-(trifluoromethyl)cyclopropyl)ethyl)urea]",B (Non-selective compounds showed Kv7.4 and/or Kv7.3/7.5 ΔV1/2 higher than 15 mV (letter B in table 3)),A (Selective compounds showed Kv7.4 and/or Kv7.3/7.5 ΔV1/2 equal to or lower than 15 mV (letter A in table 3))
5.45 µM,28.27 mV,"O=C(NCCC1(C(F)(F)F)CC1)NCc1ccnc(OCCF)c1 [Compound 17, 1-((2-(2-Fluoroethoxy)pyridin-4-yl)methyl)-3-(2-(1-(trifluoromethyl)cyclopropyl)ethyl)urea]",A (Selective compounds showed Kv7.4 and/or Kv7.3/7.5 ΔV1/2 equal to or lower than 15 mV (letter A in table 3)),A (Selective compounds showed Kv7.4 and/or Kv7.3/7.5 ΔV1/2 equal to or lower than 15 mV (letter A in table 3))
